Drawing on patent publication US20250215030A1, “STAT MODULATORS AND USES THEREOF” (Recludix Pharma, Inc., priority 2022, published 2025), this text covers IC50 for 17 compounds.

For the first test, the target named is T1, pSTAT3 (pY705-STAT3) (Homo sapiens, UniProt P40763).
T1 construct: host or cells: cryopreserved PBMC
T1 sequence (P40763 whole entry): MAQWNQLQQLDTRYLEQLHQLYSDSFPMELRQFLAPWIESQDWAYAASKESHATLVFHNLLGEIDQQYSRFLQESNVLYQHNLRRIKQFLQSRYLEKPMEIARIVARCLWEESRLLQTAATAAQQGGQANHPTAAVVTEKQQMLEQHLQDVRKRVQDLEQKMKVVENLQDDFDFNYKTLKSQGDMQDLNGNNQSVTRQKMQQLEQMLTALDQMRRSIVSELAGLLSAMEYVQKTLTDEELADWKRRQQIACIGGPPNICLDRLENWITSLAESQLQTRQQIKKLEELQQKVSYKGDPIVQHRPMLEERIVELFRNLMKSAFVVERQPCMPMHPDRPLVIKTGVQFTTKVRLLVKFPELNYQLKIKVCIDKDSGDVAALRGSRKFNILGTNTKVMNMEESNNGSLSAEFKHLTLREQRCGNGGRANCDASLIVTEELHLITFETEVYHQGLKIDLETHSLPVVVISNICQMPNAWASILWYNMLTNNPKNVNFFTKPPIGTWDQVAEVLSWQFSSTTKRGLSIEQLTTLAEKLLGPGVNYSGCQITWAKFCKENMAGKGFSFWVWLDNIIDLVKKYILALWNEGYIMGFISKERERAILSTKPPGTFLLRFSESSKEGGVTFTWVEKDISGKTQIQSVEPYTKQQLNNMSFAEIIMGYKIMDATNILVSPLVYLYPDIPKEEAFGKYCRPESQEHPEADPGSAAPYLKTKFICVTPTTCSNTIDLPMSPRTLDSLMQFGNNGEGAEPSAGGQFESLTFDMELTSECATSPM
Put plainly: MSD-pSTAT-PBMC Assay (pSTAT3, IL-6 stimulated). The test is classed as cell-based.
Conditions: not given
The method in brief: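 Phospho-STAT levels captured on anti-STAT3 or anti-STAT6 plates and detected with anti-pY705 or anti-pY641 antibodies (MSD read-out). Cryopreserved human PBMCs received compound for 3 h before a 10 min pulse of IL-6 (10 ng/mL, STAT3) or IL-4 (1 ng/mL, STAT6). IC50 fitted after unstimulated-background subtraction and DMSO normalization.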
In turn, `CCCOC(=O)[C@H](C)NP(=O)(Oc1ccccc1)C(F)c1ccc2sc(C(=O)N[C@H]3C[C@@H]4C[C@@H]4C[C@H]4CC[C@@H](C(=O)N5CC(N6CCS(=O)(=O)CC6)C5)N4C3=O)cc2c1` (stereo partly drawn) [Compound 310, propyl(((2-(((3S,6S,7aS,8aR,9aR)-3-(3-(1,1-dioxidothiomorpholino)azetidine-1-carbonyl)-5-oxodecahydro-1H-cyclopropa[d]pyrrolo[1,2-a]azocin-6-yl)carbamoyl)benzo[b]thiophen-5-yl)fluoromethyl)(phenoxy)phosphoryl)-L-alaninate] came in with an IC50 greater than 3000 nM.

Still in this test, the particulars now being: PBMC, compound 3 hrs, then 10 ng/mL IL-6 for 10 min; MSD pY705-STAT3; read-out: pSTAT3.
`CC(C)(C)C(=O)SCCOP(=O)(OCCSC(=O)C(C)(C)C)C(F)(F)c1ccc2sc(C(=O)N[C@H]3C[C@@H]4C[C@@H]4C[C@H]4CC[C@@H](C(=O)N5CC(c6cnccc6F)C5)N4C3=O)cc2c1` [Compound 308, S,S′-((((difluoro(2-(((3S,6S,7aS,8aR,9aR)-3-(3-(4-fluoropyridin-3-yl)azetidine-1-carbonyl)-5-oxodecahydro-1H-cyclopropa[d]pyrrolo[1,2-a]azocin-6-yl)carbamoyl)benzo[b]thiophen-5-yl)methyl)phosphoryl)bis(oxy))bis(ethane-2,1-diyl))bis(2,2-dimethylpropanethioate)]: the IC50 is less than 100 nM.

With `CCCOC(=O)[C@H](C)NP(=O)(Oc1ccccc1)C(F)c1ccc2sc(C(=O)N[C@H]3C[C@@H]4C[C@@H]4C[C@H]4CC[C@@H](C(=O)N5CC(c6nncn6C)C5)N4C3=O)cc2c1` (stereo partly drawn) [Compound 309, propyl ((fluoro(2-(((3S,6S,7aS,8aR,9aR)-3-(3-(4-methyl-4H-1,2,4-triazol-3-yl)azetidine-1-carbonyl)-5-oxodecahydro-1H-cyclopropa[d]pyrrolo[1,2-a]azocin-6-yl)carbamoyl)benzo[b]thiophen-5-yl)methyl)(phenoxy)phosphoryl)-L-alaninate], the IC50 is greater than 3000 nM.

With `CCCOC(=O)[C@H](C)NP(=O)(Cc1ccc2sc(C(=O)N[C@H]3C[C@@H]4C[C@@H]4C[C@H]4CC[C@@H](C(=O)N5CC(c6cnccc6C)C5)N4C3=O)cc2c1)OCC(F)(F)F` (stereo partly drawn) [Compound 311, propyl(((2-(((3S,6S,7aS,8aR,9aR)-3-(3-(4-methylpyridin-3-yl)azetidine-1-carbonyl)-5-oxodecahydro-1H-cyclopropa[d]pyrrolo[1,2-a]azocin-6-yl)carbamoyl)benzo[b]thiophen-5-yl)methyl)(2,2,2-trifluoroethoxy)phosphoryl)-L-alaninate], the IC50 was less than 100 nM.

In the case of `CC(C)(C)C(=O)SCCOP(=O)(OCCSC(=O)C(C)(C)C)C(F)(F)c1ccc2sc(C(=O)N[C@H]3C[C@@H]4C[C@@H]4C[C@H]4CC[C@@H](C(=O)N5CC(c6ccccn6)C5)N4C3=O)cc2c1` [Compound 314], the IC50 was less than 100 nM.

With `CCCOC(=O)[C@H](C)NP(=O)(Oc1ccccc1)C(F)c1ccc2sc(C(=O)N[C@H]3C[C@@H]4C[C@@H]4C[C@H]4CC[C@@H](C(=O)N5CC(c6ncccn6)C5)N4C3=O)cc2c1` (stereo partly drawn) [Compound 315, propyl ((fluoro(2-(((3S,6S,7aS,8aR,9aR)-5-oxo-3-(3-(pyrimidin-2-yl)azetidine-1-carbonyl)decahydro-1H-cyclopropa[d]pyrrolo[1,2-a]azocin-6-yl)carbamoyl)benzo[b]thiophen-5-yl)methyl)(phenoxy)phosphoryl)-L-alaninate], the IC50 is 100 to 1000 nM.

As to `CCCOC(=O)[C@H](C)NP(=O)(Oc1ccccc1)C(F)c1ccc2sc(C(=O)N[C@H]3C[C@@H]4C[C@@H]4C[C@H]4CC[C@@H](C(=O)N5CC(c6ccon6)C5)N4C3=O)cc2c1` (stereo partly drawn) [Compound 316, propyl ((fluoro(2-(((3S,6S,7aS,8aR,9aR)-3-(3-(isoxazol-3-yl)azetidine-1-carbonyl)-5-oxodecahydro-1H-cyclopropa[d]pyrrolo[1,2-a]azocin-6-yl)carbamoyl)benzo[b]thiophen-5-yl)methyl)(phenoxy)phosphoryl)-L-alaninate], the IC50 was less than 100 nM.

Turning to `CCCOC(=O)[C@H](C)NP(=O)(Oc1ccccc1)C(F)c1ccc2sc(C(=O)N[C@H]3C[C@H]4C[C@H]4C[C@H]4CC[C@@H](C(=O)N5CC(c6cnccc6OC)C5)N4C3=O)cc2c1` (stereo partly drawn) [Compound 319, propyl ((fluoro(2-(((3S,6S,7aR,8aS,9aR)-3-(3-(4-methoxypyridin-3-yl)azetidine-1-carbonyl)-5-oxodecahydro-1H-cyclopropa[d]pyrrolo[1,2-a]azocin-6-yl)carbamoyl)benzo[b]thiophen-5-yl)methyl)(phenoxy)phosphoryl)-L-alaninate], the IC50 is less than 100 nM.

On to `CCCOC(=O)[C@H](C)NP(=O)(Oc1ccccc1)C(F)c1ccc2sc(C(=O)N[C@H]3C[C@H]4C[C@H]4C[C@H]4CC[C@@H](C(=O)N5CC(c6cnccc6C)C5)N4C3=O)cc2c1` (stereo partly drawn) [Compound 321, propyl ((fluoro(2-(((3S,6S,7aR,8aS,9aR)-3-(3-(4-methylpyridin-3-yl)azetidine-1-carbonyl)-5-oxodecahydro-1H-cyclopropa[d]pyrrolo[1,2-a]azocin-6-yl)carbamoyl)benzo[b]thiophen-5-yl)methyl)(phenoxy)phosphoryl)-L-alaninate], for which the IC50 is less than 100 nM.

In the case of `CCCOC(=O)[C@H](C)NP(=O)(Oc1ccccc1)C(F)c1ccc2sc(C(=O)N[C@H]3C[C@@H]4C[C@@H]4C[C@H]4CC[C@@H](C(=O)N5CC(c6ncco6)C5)N4C3=O)cc2c1` (stereo partly drawn) [Compound 323, propyl ((fluoro(2-(((3S,6S,7aS,8aR,9aR)-3-(3-(oxazol-2-yl)azetidine-1-carbonyl)-5-oxodecahydro-1H-cyclopropa[d]pyrrolo[1,2-a]azocin-6-yl)carbmaoyl)benzo[b]thiophen-5-yl)methyl)(phenoxy)phosphoryl)-L-alaninate], the IC50 was less than 100 nM.

Consider `CCCOC(=O)[C@H](C)NP(=O)(Oc1ccccc1)C(F)c1ccc2sc(C(=O)N[C@H]3C[C@@H]4C[C@@H]4C[C@H]4CC[C@@H](C(=O)N5CC(c6ncc(C)o6)C5)N4C3=O)cc2c1` (stereo partly drawn) [Compound 325, propyl ((fluoro(2-(((3S,6S,7aS,8aR,9aR)-3-(3-(5-methyloxazol-2-yl)azetidine-1-carbonyl)-5-oxodecahydro-1H-cyclopropa[d]pyrrolo[1,2-a]azocin-6-yl)carbamoyl)benzo[b]thiophen-5-yl)methyl)(phenoxy)phosphoryl)-L-alaninate], for which the IC50 was in the range of 100 to 1000 nM.

Regarding `CCOC(=O)[C@H](C)NP(=O)(OCC(F)(F)F)C(F)c1ccc2sc(C(=O)N[C@H]3C[C@@H]4C[C@@H]4C[C@H]4CC[C@@H](C(=O)N5CC(c6cnccc6C)C5)N4C3=O)cc2c1` (stereo partly drawn) [Compound 329, ethyl ((fluoro(2-(((3S,6S,7aS,8aR,9aR)-3-(3-(4-methylpyridin-3-yl)azetidine-1-carbonyl)-5-oxodecahydro-1H-cyclopropa[d]pyrrolo[1,2-a]azicin-6-yl)carbamoyl)benzo[b]thiophen-5-yl)methyl)(2,2,2-trifluoroethoxy)phosphoryl)-L-alaninate], the IC50 is less than 100 nM.

With `CCCOC(=O)[C@H](C)NP(=O)(Oc1ccccc1)C(F)c1ccc2sc(C(=O)N[C@H]3C[C@H]4C[C@H]4C[C@H]4CC[C@@H](C(=O)N5CC(c6nncn6C)C5)N4C3=O)cc2c1` (stereo partly drawn) [Compound 332, propyl ((fluoro(2-(((3S,6S,7aR,8aS,9aR)-3-(3-(4-methyl-4H-1,2,4-triazol-3-yl)azetidine-1-carbonyl)-5-oxodecahydro-1H-cyclopropa[d]pyrrolo[1,2-a]azocin-6-yl)carbamoyl)benzo[b]thiophen-5-yl)methyl)(phenoxy)phosphoryl)-L-alaninate], the IC50 is greater than 3000 nM.

Turning to `CCCOC(=O)[C@H](C)NP(=O)(Oc1ccccc1)C(F)c1ccc2sc(C(=O)N[C@H]3C[C@H]4C[C@H]4C[C@H]4CC[C@@H](C(=O)N5CC(c6ncccn6)C5)N4C3=O)cc2c1` (stereo partly drawn) [Compound 338, propyl ((fluoro(2-(((3S,6S,7aR,8aS,9aR)-5-oxo-3-(3-(pyrimidin-2-yl)azetidine-1-carbonyl)decahydro-1H-cyclopropa[d]pyrrolo[1,2-a]azocin-6-yl)carbamoyl)benzo[b]thiophen-5-yl)methyl)(phenoxy)phosphoryl)-L-alaninate], the IC50 is less than 100 nM.

As to `CCCOC(=O)[C@H](C)NP(=O)(Oc1ccccc1)C(F)c1ccc2sc(C(=O)N[C@H]3C[C@@H]4C[C@@H]4C[C@H]4CC[C@@H](C(=O)N5CC(c6cc(C)on6)C5)N4C3=O)cc2c1` (stereo partly drawn) [Compound 359, propyl ((fluoro(2-(((3S,6S,7aS,8aR,9aR)-3-(3-(5-methylisoxazol-3-yl)azetidine-1-carbonyl)-5-oxodecahydro-1H-cyclopropa[d]pyrrolo[1,2-a]azocin-6-yl)carbamoyl)benzo[b]thiophen-5-yl)methyl)(phenoxy)phosphoryl)-L-alaninate], the IC50 was less than 100 nM.

For the compound `CCCOC(=O)[C@H](C)NP(=O)(Oc1ccccc1)C(F)c1ccc2sc(C(=O)N[C@H]3C[C@@H]4C[C@@H]4C[C@H]4CC[C@@H](C(=O)N5CC(c6nc(C)no6)C5)N4C3=O)cc2c1` (stereo partly drawn) [Compound 360, propyl ((fluoro(2-(((3S,6S,7aS,8aR,9aR)-3-(3-(3-methyl-1,2,4-oxadiazol-5-yl)azetidine-1-carbonyl)-5-oxodecahydro-1H-cyclopropa[d]pyrrolo[1,2-a]azocin-6-yl)carbamoyl)benzo[b]thiophen-5-yl)methyl)(phenoxy)phosphoryl)-L-alaninate], the IC50 is less than 100 nM.

As for `CCCOC(=O)[C@H](C)NP(=O)(Oc1ccccc1)C(F)c1ccc2sc(C(=O)N[C@H]3C[C@@H]4C[C@@H]4C[C@H]4CC[C@@H](C(=O)N5CC(c6cc(C)no6)C5)N4C3=O)cc2c1` (stereo partly drawn) [Compound 361, propyl ((fluoro(2-(((3S,6S,7aS,8aR,9aR)-3-(3-(3-methylisoxazol-5-yl)azetidine-1-carbonyl)-5-oxodecahydro-1H-cyclopropa[d]pyrrolo[1,2-a]azocin-6-yl)carbamoyl)benzo[b]thiophen-5-yl)methyl)(phenoxy)phosphoryl)-L-alaninate], the IC50 was less than 100 nM.
